Results published in patent US9422350B2, “Target of EGR1 (TOE1) polypeptides for inhibition of HIV” (priority 2010, dated 2016).
Entries after “also recorded” stand apart in the source; their conditions may differ.

Legend:
[1] = system: Tat driven HIV LTR expression; test: Tat-driven HIV LTR (TAR) luciferase reporter assay in transfected HeLa cells; assay type: cell-based; settings: for inhibitory activity of Tat activation of HIV LTR compared with wild-type TOE1: HeLa cells, luciferase, FIG. 7
Experimental: FIG. 3: TOE1 inhibits Tat driven HIV LTR expression. HeLa cells were seeded into 24 wells plates at 30,000 cells/well and then transfected the following day with the indicated constructs at 200 ng total DNA+0.5 μl of FuGENE™ (Roche)/well. 24 hours after transfection the cells were lysed and the luciferase expression was determined by reading Relative Bioluminescent Units (RLU). This graph is representative of multiple experiments performed in triplicates.
FIG. 7: TOE1 processing by caspase-1 enhances its inhibition of HIV LTR transactivation by Tat. (A) HeLa cells were transfected with the indicated constructs, and then luciferase assay was performed as described above. […] All transfection and measurements were performed in triplicate.
FIG. 9: Defining the minimal TOE1 region able to inhibit Tat-induced HIV LTR activation. […] Results are expressed as percentage activation of the HIV LTR referenced to Tat. All transfections and measurements were performed in triplicate, and results are representative of multiple independent experiments.
To test for a potential interaction between TOE1 and Tat, we assessed the effect of TOE1 expression on Tat driven transactivation of the TAR element. We employed a luciferase expression system controlled by the HIV LTR including the TAR sequence.

[2] = biological target: T1, caspase-1 (Homo sapiens, UniProt P29466); test: In vitro digestion of immunoprecipitated TOE1 with recombinant caspase-1, Western blot; assay type: biochemical; settings: caspase-1 incubation 4 hours at 37° C., FIG. 4
T1 construct: purchased Calbiochem
T1 sequence (P29466 120-297 limits assumed): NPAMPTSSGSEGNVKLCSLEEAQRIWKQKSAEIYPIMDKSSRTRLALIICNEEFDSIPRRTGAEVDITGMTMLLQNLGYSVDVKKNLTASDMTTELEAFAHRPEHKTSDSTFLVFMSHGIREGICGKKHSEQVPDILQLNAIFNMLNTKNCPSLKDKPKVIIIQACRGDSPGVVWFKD
Experimental: FIG. 4: TOE1 is a substrate for caspase-1. (A) Endogenously expressed TOE1 was immunoprecipitated from a lysate of Jurkat cells using the rabbit polyclonal α-TOE1 antibody or pre-immune serum (control=C) and ProteinA/Sepharose™ beads. Immunoprecipitates complexed beads were then incubated with 5 units of recombinant caspase-1 (from Calbiochem) or control buffer, as indicated, for 4 hours at 37° C., and then separated on a 12% Acrylamide/SDS gel and transferred on a PVDF membrane. 50 kDa, 40 kDa and 30 kDa fragments are visible after probing the blot with the monoclonal α-TOE1 antibody. (B) Cell lysates from cells transfected with a TOE1 expression construct were subjected to immunoprecipitation with the rabbit α-TOE1 antibody and ProteinA/Sepharose™ beads.
Since, as described earlier, CAF activity is reported to be dependent upon proteolytic activity, we decided to explore the possibility that TOE1 is a protease substrate. […] The software predicts a single cleavage for the tetrapeptide FTAD at position 214-217 of TOE1. We considered this potential cleavage to warrant further study for several reasons. […] Under our experimental conditions we observed processing by casapse-1 generating fragments of 50, 40, and 30 kDa as detected with a monoclonal anti-TOE1 antibody whose target epitope we have mapped to residues 218-282 (FIG. 4A). […]

[3] = system: Tat-driven HIV LTR activity; test: Co-culture of transfected 293T cells with HeLa cells carrying HIV LTR reporter and Tat; assay type: cell-based; settings: 293T transfected with construct, co-cultured 24 hours with HeLa (HIV LTR + Tat), FIG. 11
Experimental: FIG. 11. TOE1 can be secreted and inhibits HIV LTR in neighboring cells. HeLa cells were transfected with either HIV LTR alone, or together with Tat as indicated. Separately, 293T cells were transfected with either control empty vector (C), full length TOE1 (TOE1), or a deletion mutant comprising amino acids 283-363 (SEQ ID NO:13) containing the basic region located at 335-348 (283-363). 24 hours following transfection, the transfected 293T cells were placed in co-culture with the transfected HeLa cells to provide the samples. 24 hours after co-culture, samples were assayed for Tat-driven HIV LTR activity.
To determine if TOE1 could be secreted and subsequently taken up by other neighboring cells, we performed co-culture experiments of cells transfected with the HIV LTR reporter and Tat protein in one cell type and either full length TOE1 or the potential protein transduction domain of TOE1 comprising amino acids 283-363 (SEQ ID NO:13) in another cell type. […] Therefore, a minimal domain of TOE1, comprising the basic stretch of amino acids at position 335-347 (SEQ ID NO:15), was able to function as a protein transduction domain as well as an effective inhibitor of Tat transcriptional activation.

## D195/282A
[1]
  inhibitory activity of Tat activation of HIV LTR compared with wild-type TOE1: less effective than wild type TOE1; also recorded: significantly less effective

## YVAD-CHO
[2]
  inhibition of TOE1 processing by caspase-1: completely prevents the processing; also recorded: processing was inhibited

## TOE1: human TOE1 (target of EGR1) protein, full length, 510 amino acids
[1]; HIV LTR luciferase, no Tat
  effect on the LTR in the absence of Tat: did not have any effect
[1]; TOE1 coexpressed with Tat, HIV LTR incl. TAR luciferase, different experiments (FIG. 3)
  reduction of Tat transactivation potential: 50-80%
[3]
  inhibition of Tat activation of the HIV LTR in neighboring cells: effectively inhibiting

## delN282
[1]
  inhibitory activity of Tat activation of HIV LTR compared with wild-type TOE1: more efficient inhibitor; also recorded: greater inhibition than wild-type TOE1

## 335-363 (KRRRRRRREKRKRALLNLPGTQTSGEAKD; K335/D363 Deletion mutant of TOE1)
[1]; transfected deletion mutants, FIG. 9
  inhibition of Tat activation of the HIV LTR by TOE1 deletion mutants: significantly inhibiting
